{
  "source": "patent US20110236885A1",
  "about": "(Academia Sinica, priority 2004, published 2011)",
  "key": {"[1]": {"tested_on": "Han Chinese patients having warfarin sensitivity and resistance", "assay": "Warfarin maintenance dose and INR in selected Chinese patients with warfarin sensitivity or resistance, by VKORC1 -1639 genotype", "type": "in vivo, human", "conditions": "for Dose: individual patients; for dose requirements, mean / dose requirements, range: selected patients", "source_text": "(§1) Clinical information (including age, sex, weight, and average daily maintenance dose) was obtained from every participant.\nPrimers were specifically designed for the intron-exon junctions, exons and 2 kbps upstream of the transcription start site for both CYP2C9 and VKORC1 using the Primer3 PCR primer program (http://fokker.wi.mit.edu/cgi-bin/primer3/primer3_www.cgi). The primers used to detect variants in the VKORC1 promoter were: 5′-[…] (SEQ ID NO:2; sense strand located 1.5 kb upstream of the transcription start site) and 5′-[…] (SEQ ID NO:3; anti-sense strand located 0.9 kb upstream of the transcription start site). The polymerase chain reactions (PCR) were performed in a final volume of […] containing 0.4 μM of each primer, 10 mM Tris-HCl (pH8.3), 50 mM KCl, 1.5 mM MgCl2, 0.2 mM dNTPs and 1 unit HotStart Taq™ (Qiagen Inc, Valencia, Calif., USA). Amplification conditions consisted of an initial denaturation of 12 min at 96° C., followed by 34 PCR cycles in 30 sec at 96° C., 30 sec at 60° C., 40 sec at 72° C.\nThe variants were: 1075 A>C (1359L known as CYP2C9*3), 895 A>G (T299A), and 1145 C>T (P382L).\nWe also sequenced the promoter, coding regions, and the exon-intron junctions of the VKORC1 gene."}, "[2]": {"tested_on": "randomly selected Chinese patients receiving warfarin", "assay": "Warfarin maintenance dose and INR in 104 randomly selected Chinese patients receiving warfarin, by VKORC1 -1639 genotype", "type": "in vivo, human", "protocol": "as §1\nBriefly, primers and probes were designed using the Spectro[…] software (Sequenom). Multiplex PCR was performed, and unincorporated dNTPs were dephosphorylated using shrimp alkaline phosphatase (Hoffman-LaRoche, Basel, Switzerland), followed by primer extension. The purified primer extension reactions were spotted onto a 384-element silicon chip (SpectroCHIP, Sequenom), analyzed in the Bruker Biflex III MALDI-TOF SpectroREADER mass spectrometer (Sequenom), and the resulting spectrum was processed with SpectroTYPER (Sequenom).\nWe analyzed the data regardless of the presence of other confounding variables, such as diet or other medications."}, "[3]": {"conditions": "heterozygous AG at VKORC1 -1639"}},
  "note": "Values joined by “and” are separate entries in the source; they are usually repeats but may differ in a detail not shown here. Equal values may be shown once.",
  "data": [
    {"compound": "CC(=O)CC(c1ccccc1)c1c(O)c2ccccc2oc1=O", "note": "(racemic) [warfarin, 4-hydroxy-3-(3-oxo-1-phenylbutyl)-2H-1-benzopyran-2-one]", "values": [
      {"measurement": "Dose", "setting": "[1]; VKORC1 -1639 AA, warfarin sensitive group (dose ≦1.5 mg/day), average daily maintenance dose", "value": "1.43 mg/d and 1.5 mg/d and 0.71 mg/d and 1 mg/d (2×)"},
      {"measurement": "Dose", "setting": "[1]; VKORC1 -1639 AG, warfarin resistant group (dose ≧6 mg/day)", "value": "6.07 mg/day and 10 mg/day"},
      {"measurement": "Dose", "setting": "[1]; VKORC1 -1639 GG, warfarin resistant group (dose ≧6 mg/day)", "value": "8.57 mg/day and 8.75 mg/day and 10 mg/day"},
      {"measurement": "dose requirements, mean", "setting": "[1]; AA genotype at VKORC1 -1639", "value": 1.19, "unit": "mg/day"},
      {"measurement": "dose requirements, range", "setting": "[1]; AA genotype at VKORC1 -1639", "value": "0.71 to 1.50", "unit": "mg/day"},
      {"measurement": "dose requirements, mean", "setting": "[1]; [3]", "value": 8.04, "unit": "mg/day"},
      {"measurement": "dose requirements, range", "setting": "[1]; [3]", "value": "6.07 to 10", "unit": "mg/day"},
      {"measurement": "dose requirements, mean", "setting": "[1]; homozygous GG at VKORC1 -1639", "value": 9.11, "unit": "mg/day"},
      {"measurement": "dose requirements, range", "setting": "[1]; homozygous GG at VKORC1 -1639", "value": "8.57 to 10", "unit": "mg/day"},
      {"measurement": "warfarin dose, upper limit observed", "setting": "[2]; none of the randomly selected patients had a greater dose", "value": "≤ 6", "unit": "mg/day"},
      {"measurement": "maintenance dose", "setting": "[2]; randomly selected patients, AA genotype", "value": "2.61+/−1.10 my/day"},
      {"measurement": "Warfarin dose,", "setting": "[2]; randomly selected patients, VKORC1 -1639 AG + GG (n = 21), mean ± SD", "value": "3.81 ± 1.24 mg/day and 3.81 mg/day"}
    ]}
  ]
}
